Consider 33 molecules from patent publication US12643905B2, “Spiropyrrolidine derived antiviral agents” (priority 2021, dated 2026).

Structures are written as SMILES. Bounds are passed on as bounds.

Usually IC50 stands for the concentration needed to halve the response being measured. As usually defined, the EC50 is the concentration at which the effect is half-maximal. Read a low EC50 as higher potency in that assay.

One assay addresses SARS-CoV-2 3CL-protease (Severe acute respiratory syndrome coronavirus 2, UniProt P0DTD1). Nature of the assay: SARS-CoV-2 3C-like (3CL) protease fluorescence assay (FRET). The assay is classed as biochemical. As to conditions: recombinant SARS-CoV-2 3CL-protease 10 nM, 30 min preincubation, run in duplicate; read-out: FRET IC50.
Assay [1] deals with 229E human corona virus (hCoV). Nature of the assay: 229E live virus assay (CPE, ATPlite readout in MRC-5 cells). It counts as cell-based, hCoV-229E. As to conditions: Human coronavirus 229E, MRC5, 144 h, MOI 0.05, 6 days at 34° C., run in duplicate. Background: Cellular ATP, detected with luciferase, serves as a proxy for viable cell number.

As for `CC(C)(C)C[C@H](NC(=O)C(=O)Nc1ccc2cc(F)ccc2c1)C(=O)N1C[C@]2(C[C@H]1C#N)C(=O)Nc1ccccc12` [Example 85], the concentration for half-maximal inhibition (IC50) on SARS-CoV-2 3CL-protease is less than 100 nM. The EC50 in assay [1] is less than 100 nM.
In the case of `CCC(C)NC(=O)C(=O)N[C@@H](CC(C)(C)C)C(=O)N1C[C@]2(C[C@H]1C#N)C(=O)Nc1ccccc12` (stereo partly drawn) [Example 88], the concentration for half-maximal inhibition (IC50) at SARS-CoV-2 3CL-protease is less than 100 nM. In addition, the EC50 in assay [1] is less than 100 nM.
`CC(C)(C)C[C@H](NC(=O)C(=O)Nc1cccc(F)c1)C(=O)N1C[C@]2(C[C@H]1C#N)C(=O)Nc1ccccc12` [Example 89]: at SARS-CoV-2 3CL-protease, the IC50 was less than 100 nM. In assay [1], the EC50 is less than 100 nM.
Take `CC(C)(C)C[C@H](NC(=O)C(=O)Nc1ccccc1F)C(=O)N1C[C@]2(C[C@H]1C#N)C(=O)Nc1ccccc12` [Example 90]: the half-maximal inhibitory concentration (IC50) at SARS-CoV-2 3CL-protease is less than 100 nM. In assay [1], this molecule gave an EC50 of less than 100 nM.
Take `CC(C)(C)C[C@H](NC(=O)C(=O)Nc1c(F)cc(F)cc1F)C(=O)N1C[C@]2(C[C@H]1C#N)C(=O)Nc1ccccc12` [Example 92]: the IC50 on SARS-CoV-2 3CL-protease was less than 100 nM. This molecule showed a 50% effective concentration (EC50) in assay [1] of less than 100 nM.
For `CC(C)(C)C[C@H](NC(=O)C(=O)Nc1ccc(F)cc1)C(=O)N1C[C@]2(C[C@H]1C#N)C(=O)Nc1ccccc12` [Example 93], on SARS-CoV-2 3CL-protease, the IC50 was less than 100 nM. The half-maximal effective concentration (EC50) in assay [1] was less than 100 nM.
On to `CC(C)(C)C[C@H](NC(=O)C(=O)Nc1ccc(F)cc1F)C(=O)N1C[C@]2(C[C@H]1C#N)C(=O)Nc1ccccc12` [Example 94], for which the 50% inhibitory concentration (IC50) on SARS-CoV-2 3CL-protease was less than 100 nM. The molecule also gave an EC50 in assay [1] of less than 100 nM.
Consider `CC(C)(C)C[C@H](NC(=O)C(=O)Nc1ccc2ccccc2c1)C(=O)N1C[C@]2(C[C@H]1C#N)C(=O)Nc1ccccc12` [Example 96], for which the 50% inhibitory concentration (IC50) at SARS-CoV-2 3CL-protease was less than 100 nM. In assay [1], this molecule displayed an EC50 of less than 100 nM.
Turning to `CC(C)(C)C[C@H](NC(=O)C(=O)NC1CCCCC1)C(=O)N1C[C@]2(C[C@H]1C#N)C(=O)Nc1ccccc12` [Example 97], the half-inhibitory concentration (IC50) at SARS-CoV-2 3CL-protease was less than 100 nM. The molecule further yielded a 50% effective concentration (EC50) in assay [1] of less than 100 nM.
Take `CC(C)(C)C[C@H](NC(=O)C(=O)NC1CCCC1)C(=O)N1C[C@]2(C[C@H]1C#N)C(=O)Nc1ccccc12` [Example 98]: on SARS-CoV-2 3CL-protease, the half-inhibitory concentration (IC50) is less than 100 nM. The concentration giving a half-maximal response (EC50) in assay [1] is less than 100 nM.
As for `CC(C)C[C@H](NC(=O)C(=O)Nc1ccc(F)cc1)C(=O)N1C[C@]2(C[C@H]1C#N)C(=O)Nc1ccccc12` [Example 115], the 50% inhibitory concentration (IC50) on SARS-CoV-2 3CL-protease was less than 100 nM. The molecule further came in with a concentration for a half-maximal effect (EC50) in assay [1] of less than 100 nM.
Turning to `CC(C)[C@H](NC(=O)C(=O)N[C@@H](CC(C)(C)C)C(=O)N1C[C@]2(C[C@H]1C#N)C(=O)Nc1ccccc12)c1ccccc1` [Example 116], the IC50 on SARS-CoV-2 3CL-protease was less than 100 nM. Further, in assay [1], the half-maximal effective concentration (EC50) is less than 100 nM.
Turning to `CC(C)(C)C[C@H](NC(=O)C(=O)Nc1c(Cl)cccc1Cl)C(=O)N1C[C@]2(C[C@H]1C#N)C(=O)Nc1ccccc12` [Example 117], the IC50 on SARS-CoV-2 3CL-protease was less than 100 nM. The molecule further yielded an EC50 in assay [1] of less than 100 nM.
On to `CC(C)(C)C[C@H](NC(=O)C(=O)NC1(c2ccccc2)CC1)C(=O)N1C[C@]2(C[C@H]1C#N)C(=O)Nc1ccccc12` [Example 118], for which, at SARS-CoV-2 3CL-protease, the IC50 was less than 100 nM. For the same molecule, the 50% effective concentration (EC50) in assay [1] is less than 100 nM.
For `CC(C)(C)C[C@H](NC(=O)C(=O)NC1(c2ccccc2)CCC1)C(=O)N1C[C@]2(C[C@H]1C#N)C(=O)Nc1ccccc12` [Example 119], the IC50 at SARS-CoV-2 3CL-protease was less than 100 nM. The same molecule yielded an EC50 in assay [1] of less than 100 nM.
`CC(C)(C)C[C@H](NC(=O)C(=O)NC1CC(F)(F)C1)C(=O)N1C[C@]2(C[C@H]1C#N)C(=O)Nc1ccccc12` [Example 120]: at SARS-CoV-2 3CL-protease, the 50% inhibitory concentration (IC50) was less than 100 nM. For the same molecule, the EC50 in assay [1] was less than 100 nM.
Consider `CC(C)(C)C[C@H](NC(=O)C(=O)Nc1c(C(F)(F)F)cccc1C(F)(F)F)C(=O)N1C[C@]2(C[C@H]1C#N)C(=O)Nc1ccccc12` [Example 138], for which, at SARS-CoV-2 3CL-protease, the concentration for half-maximal inhibition (IC50) is less than 100 nM. The same molecule came in with an EC50 in assay [1] of less than 100 nM.
For the molecule `CC(C)(C)C[C@H](NC(=O)C(=O)NCc1ccccc1)C(=O)N1C[C@]2(C[C@H]1C#N)C(=O)Nc1ccccc12` [Example 159], at SARS-CoV-2 3CL-protease, the concentration for half-maximal inhibition (IC50) is less than 100 nM. This molecule displayed an EC50 in assay [1] of less than 100 nM.
In the case of `C[C@@H](NC(=O)C(=O)N[C@@H](CC(C)(C)C)C(=O)N1C[C@]2(C[C@H]1C#N)C(=O)Nc1ccccc12)c1ccccc1` [Example 160], the IC50 on SARS-CoV-2 3CL-protease was less than 100 nM. Besides, the EC50 in assay [1] was less than 100 nM.
Turning to `C[C@H](NC(=O)C(=O)N[C@@H](CC(C)(C)C)C(=O)N1C[C@]2(C[C@H]1C#N)C(=O)Nc1ccccc12)c1ccccc1` [Example 161], the IC50 on SARS-CoV-2 3CL-protease was less than 100 nM. This molecule also returned a concentration giving a half-maximal response (EC50) in assay [1] of less than 100 nM.
In the case of `CC(C)(C)C[C@H](NC(=O)C(=O)c1ccccc1)C(=O)N1C[C@]2(C[C@H]1C#N)C(=O)Nc1ccccc12` [Example 179], the IC50 at SARS-CoV-2 3CL-protease was 100 to 1000 nM. Also, the EC50 in assay [1] lay in the range of 100 to 1000 nM.
Take `CC(C)(C)C[C@H](NC(=O)C(=O)C(C)(C)C)C(=O)N1C[C@]2(C[C@H]1C#N)C(=O)Nc1ccccc12` [Example 180]: the IC50 at SARS-CoV-2 3CL-protease is greater than 1000 nM. The molecule further gave an EC50 in assay [1] of 100 to 1000 nM.
The matching figures for `CC(C)(C)C[C@H](NC(=O)C(=O)c1c[nH]c2ccccc12)C(=O)N1C[C@]2(C[C@H]1C#N)C(=O)Nc1ccccc12` [Example 181]: 100 to 1000 nM and 100 to 1000 nM.
The matching figures for `CC(C)(C)C[C@H](NC(=O)C(=O)c1ccccc1F)C(=O)N1C[C@]2(C[C@H]1C#N)C(=O)Nc1ccccc12` [Example 182]: 100 to 1000 nM and 100 to 1000 nM.
On to `CC(C)(C)C[C@H](NC(=O)C(=O)C1CCCCC1)C(=O)N1C[C@]2(C[C@H]1C#N)C(=O)Nc1ccccc12` [Example 183], for which, at SARS-CoV-2 3CL-protease, the half-inhibitory concentration (IC50) is less than 100 nM. In assay [1], this molecule yielded an EC50 of 100 to 1000 nM.
The corresponding values for `[2H]C([2H])([2H])N(C(=O)C(=O)NCc1ccc(F)cc1F)[C@@H](CC1CC1)C(=O)N1C[C@]2(C[C@H]1C#N)C(=O)Nc1ccccc12` [Example 190] are less than 100 nM and less than 100 nM.
With `[2H]C([2H])([2H])N(C(=O)C(=O)NC1(c2ccc(F)cc2F)CC1)[C@@H](CC1CC1)C(=O)N1C[C@]2(C[C@H]1C#N)C(=O)Nc1ccccc12` [Example 191], the IC50 on SARS-CoV-2 3CL-protease is less than 100 nM. This molecule also gave an EC50 in assay [1] of less than 100 nM.
As to `[2H]C([2H])([2H])N(C(=O)C(=O)NCC1(C(F)(F)F)CC1)[C@@H](CC1CC1)C(=O)N1C[C@]2(C[C@H]1C#N)C(=O)Nc1ccccc12` [Example 192], at SARS-CoV-2 3CL-protease, the IC50 was less than 100 nM. In assay [1], this molecule showed a concentration giving a half-maximal response (EC50) of less than 100 nM.
On to `[2H]C([2H])([2H])N(C(=O)C(=O)Nc1c(C(F)(F)F)cccc1C(F)(F)F)[C@@H](CC1CC1)C(=O)N1C[C@]2(C[C@H]1C#N)C(=O)Nc1ccccc12` [Example 193], for which the IC50 on SARS-CoV-2 3CL-protease is less than 100 nM. Also, the EC50 in assay [1] is less than 100 nM.
With `CC(C)C[C@H]1C(=O)N2C[C@]3(C[C@H]2C#N)C(=O)Nc2ccc(cc23)CCCCNC(=O)C(=O)N1C` [Example 211], the half-maximal inhibitory concentration (IC50) on SARS-CoV-2 3CL-protease is 100 to 1000 nM. The EC50 in assay [1] lay within 100 to 1000 nM.
In the case of `CC(C)C[C@H]1C(=O)N2C[C@]3(C[C@H]2C#N)C(=O)Nc2ccc(cc23)CCCCN(Cc2ccccc2)C(=O)C(=O)N1C` [Example 212], on SARS-CoV-2 3CL-protease, the half-inhibitory concentration (IC50) lay in the range of 100 to 1000 nM. This molecule had a 50% effective concentration (EC50) in assay [1] of 100 to 1000 nM.
In the case of `CC(C)C[C@H]1C(=O)N2C[C@]3(C[C@H]2C#N)C(=O)Nc2ccc(cc23)CCCCCNC(=O)C(=O)N1C` [Example 213], the IC50 on SARS-CoV-2 3CL-protease is 100 to 1000 nM. The 50% effective concentration (EC50) in assay [1] was in the range of 100 to 1000 nM.
`CC(C)C[C@H]1C(=O)N2C[C@]3(C[C@H]2C#N)C(=O)Nc2ccc(cc23)/C=C\CCNC(=O)C(=O)N1C` [Example 214]: the IC50 at SARS-CoV-2 3CL-protease lay in the range of 100 to 1000 nM. Besides, in assay [1], the 50% effective concentration (EC50) lay within 100 to 1000 nM.
